This experiment deals with 422866-222-R5-J1-PDC spheroids with HUVEC/MSC, viability. Kind of experiment: Anticancer human tumor 422866-222-R5-J1-PDC patient-derived pancreatic adenocarcinoma cell line growth inhibition [GQUAD]. The note with it: for viability, T/C: stronger effect = lower value. The text has this:
DNA G-quadruplex Stabilizer Agents in Combinations in Complex Spheroids
A high-throughput screen of multi-cell type tumor spheroids was designed to identify active combinations of DNA G-quadruplex stabilizer agents and targeted small molecules. Complex spheroids include a stromal component modeled by human endothelial cells (HUVEC) and fibroblasts modeled by human mesenchymal stem cells (MSCs). The concentration ranges selected for each drug and investigational agent were based upon clinically achievable concentrations if the clinical Cmax of the agent was known.
Compounds. The drugs and investigational agents: pidnarulex (CX-5461; NSC782164), APTO-253 (NSC789042), BRACO-19 (NSC847499), peposertib (NSC802822), ceralasertib (NSC780249), elimusertib (NSC800525), camonsertib (NSC841442), AZD-1390 (NSC803789), olaparib (NSC753686), talazoparib (NSC767125), ART-558 (NSC835418), sotorasib (NSC818433), MRTX-1133 (NSC836407), SN-38 (NSC673596), topotecan (NSC609699), etoposide (NSC141540), doxorubicin (NSC123127), gemcitabine (NSC613327), 5-fluorouracil (NSC19893), paclitaxel (NSC125973), vemurafenib (NSC761431), panobinostat (NSC761190), R-306465 (JNJ-16241199; NSC773264), adavosertib (NSC754352), TP-3654 (NSC805149), carboplatin (NSC241240), KSQ-4279 (NSC840948), and staurosporine (NSC755774) were obtained from the National Cancer Institute (NCI) Developmental Therapeutics Program Chemical Repository (34). The FDA-approved anticancer drug set is available from the NCI Developmental Therapeutics Program. […] The stock solutions were prepared in dimethyl sulfoxide (DMSO, Sigma-Aldrich, St. Louis, MO, cat. D2650) at 800-fold the tested concentration and stored at -70 degrees C prior to their use. All drugs and investigational agents were tested over a range starting from a high concentration at or near the clinical Cmax and decreasing in half-log increments. If the clinical Cmax for an agent had not been determined, the highest concentration tested was 10 microM.
2.3 Cell Culture. All cells were maintained in an incubator at 37 degrees C and 5% CO2 with 95% humidity. The PDC lines were cultured according to standard operating procedures established by the NCI PDMR. All PDCs were thawed and cultured in Matrigel-coated flasks prepared with a working solution of 1X Ham's F-12 nutrient mix, without supplementation (Invitrogen, cat. 11765054), 100 U/mL penicillin-streptomycin (Invitrogen, cat. 15140122), and 2.5% Matrigel (Corning Inc., cat. 354248) for the first three passages. The 857933-349-R-J2-PDC line was cultured in 6C/Colon 1B media, which includes advanced DMEM/F-12 (Thermo Fisher Scientific, cat. 12634028), 10 mM HEPES (Thermo Fisher Scientific, cat. 15630080), 1X GlutaMAX supplement (Thermo Fisher Scientific, cat. 35050061), 0.1 mg/mL primocin (InvivoGen, cat. ant-pm-2), 10% defined fetal bovine serum, heat inactivated (HyClone Laboratories Inc., cat. SH30070.03HI), 50% L-WRN conditioned media (ATCC, cat. CRL-3276), 1.25 mM N-Acetyl-L-cysteine (Sigma-Aldrich, cat. A9165), 10 mM nicotinamide (Sigma-Aldrich, cat. N0636), 1X B-27 supplement (Thermo Fisher Scientific, cat. 17504044), 1X N-2 supplement (Thermo Fisher Scientific, cat. 17502048), 10 microM Y-27632 dihydrochloride (Tocris Bioscience, cat. 1254), and 50 ng/mL human EGF recombinant protein (Thermo Fisher Scientific, cat. PHG0311). The 485176-168-R4-J1-PDC line was cultured in Panc media, which includes all 6C/Colon 1B media components plus 100 ng/mL human FGF-10 (Thermo Fisher Scientific, cat. 100-26), 500 nM SB-431542 (Selleckchem, cat. S1067), and gastrin (Tocris, cat. 3006).
[…]

The mark [1] stands for this setting: compound alone, run of 04/16/2024.
Setting [2] is: curve of first compound, second compound 0.0316 µM.
The mark [3] stands for this setting: curve of first compound, second compound 0.1 µM.
Where [4] appears, read: curve of first compound, second compound 0.316 µM.
Where [5] appears, read: curve of first compound, second compound 1 µM.
Where [6] appears, read: curve of first compound, second compound 3.16 µM.
The mark [7] stands for this setting: curve of first compound, second compound 10 µM.
Setting [8] is: second compound 0.0316 µM, first compound 0.0316 µM.
Where [9] appears, read: second compound 0.0316 µM, first compound 0.1 µM.
[10] abbreviates: second compound 0.0316 µM, first compound 0.316 µM.
[11] abbreviates: second compound 0.0316 µM, first compound 1 µM.
[12] abbreviates: second compound 0.0316 µM, first compound 3.16 µM.
[13] abbreviates: second compound 0.0316 µM, first compound 10 µM.
Where [14] appears, read: second compound 0.1 µM, first compound 0.0316 µM.
The mark [15] stands for this setting: second compound 0.1 µM, first compound 0.1 µM.
[16] abbreviates: second compound 0.1 µM, first compound 0.316 µM.
[17] abbreviates: second compound 0.1 µM, first compound 1 µM.
Setting [18] is: second compound 0.1 µM, first compound 3.16 µM.
Where [19] appears, read: second compound 0.1 µM, first compound 10 µM.
Setting [20] is: second compound 0.316 µM, first compound 0.0316 µM.
Setting [21] is: second compound 0.316 µM, first compound 0.1 µM.
Setting [22] is: second compound 0.316 µM, first compound 0.316 µM.
Setting [23] is: second compound 0.316 µM, first compound 1 µM.
The mark [24] stands for this setting: second compound 0.316 µM, first compound 3.16 µM.
The mark [25] stands for this setting: second compound 0.316 µM, first compound 10 µM.
Where [26] appears, read: second compound 1 µM, first compound 0.0316 µM.
Setting [27] is: second compound 1 µM, first compound 0.1 µM.
Setting [28] is: second compound 1 µM, first compound 0.316 µM.
Setting [29] is: second compound 1 µM, first compound 1 µM.
Setting [30] is: second compound 1 µM, first compound 3.16 µM.
Setting [31] is: second compound 1 µM, first compound 10 µM.
[32] abbreviates: second compound 3.16 µM, first compound 0.0316 µM.
Where [33] appears, read: second compound 3.16 µM, first compound 0.1 µM.
Setting [34] is: second compound 3.16 µM, first compound 0.316 µM.
The mark [35] stands for this setting: second compound 3.16 µM, first compound 1 µM.
Setting [36] is: second compound 3.16 µM, first compound 3.16 µM.
[37] abbreviates: second compound 3.16 µM, first compound 10 µM.
[38] abbreviates: second compound 10 µM, first compound 0.0316 µM.
[39] abbreviates: second compound 10 µM, first compound 0.1 µM.
Where [40] appears, read: second compound 10 µM, first compound 0.316 µM.
The mark [41] stands for this setting: second compound 10 µM, first compound 1 µM.
The mark [42] stands for this setting: second compound 10 µM, first compound 3.16 µM.
Setting [43] is: second compound 10 µM, first compound 10 µM.

“And” between values parts separate entries of the source, which are not always exact repeats. Equal entries are not always repeated.
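Note: spheroids exposed to compounds for seven days before reading.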
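Throughout, for viability, T/C: percent viability relative to DMSO vehicle control taken as 100%.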

As to `C=CCn1c(=O)c2cnc(Nc3ccc(N4CCN(C)CC4)cc3)nc2n1-c1cccc(C(C)(C)O)n1`, the viability, T/C (usually the result in the treated group divided by that in the control group, in per cent) was 80.3% and 112% and 88.7% (compound 0.0316 µM); 106% and 90.1% and 74.5% (compound 0.1 µM); 125% and 67.2% and 52.5% (compound 0.316 µM); 143% and 39.7% and 40.5% (compound 1 µM); 172% and 31.3% and 30.6% (compound 3.16 µM); 99.8% and 32.3% and 27.9% (compound 10 µM).

In the case of `COc1ncnc(C2CC2)c1-c1ncc2cnn(Cc3ccc(-c4nc(C(F)(F)F)cn4C(C)C)cc3)c2n1`, the viability, T/C is 91.6% and 95% and 118% (compound 0.0316 µM); 94% and 105% and 97% (compound 0.1 µM); 92.3% and 121% and 97.5% (compound 0.316 µM); 79.7% and 102% and 98.1% (compound 1 µM); 97% and 60.6% and 99.1% (compound 3.16 µM); 117% and 43.5% and 105% (compound 10 µM). Also, the IC50 (usually the concentration needed to halve the response being measured) (curve of compound) was > 10 µM and 6.45 µM.

With `Cc1[nH]c2ccc(F)cc2c1-c1nc2c3cccnc3c3ncccc3c2[nH]1`, the viability, T/C (compound 3.16 µM) is 84.5% [middle of 12 runs]. The IC50 is, setting by setting: under setting [1], > 10 µM; (compound alone, run of 04/22/2024) > 10 µM.

As for `Cc1cnc(CNC(=O)c2c(=O)c3ccc(N4CCCN(C)CC4)nc3n3c2sc2ccccc23)cn1`, the viability, T/C is 96.7% [middle of 12 runs] (compound 0.1 µM); 90.4% [middle of 12 runs] (compound 0.316 µM); 85.3% [middle of 12 runs] (compound 1 µM); 87.8% [middle of 12 runs] (compound 3.16 µM); 81% [middle of 11 runs] (compound 10 µM). Moreover, the IC50 under setting [1] was > 10 µM.

Regarding `CC1COCCN1c1cc(-c2ccnn2C)c2ccnc(-c3ccn[nH]3)c2n1` (stereo unspecified) + CN(C)c1ccc(Nc2c3ccc(NC(=O)CCN4CCCC4)cc3nc3cc(NC(=O)CCN4CCCC4)ccc23)cc1, the IC50 runs as follows: under setting [2], > 10 µM; under setting [3], > 10 µM; under setting [4], > 10 µM; under setting [5], 0.0316 µM; under setting [6], 0.0316 µM; under setting [7], 0.0316 µM. Moreover, the viability, T/C was 88.7% under setting [8]; 60.3% under setting [9]; 53.2% under setting [10]; 46.5% under setting [11]; 73.2% under setting [12]; 92.6% under setting [13]. Besides, the viability, T/C is, setting by setting: under setting [14], 92.4%; under setting [15], 62.7%; under setting [16], 46.2%; under setting [17], 36.2%; under setting [18], 86.8%; under setting [19], 84.2%. For the same compound, the viability, T/C is 86.8% under setting [20]; 70.2% under setting [21]; 46.7% under setting [22]; 39.4% under setting [23]; 86.9% under setting [24]; 89.3% under setting [25]. The viability, T/C is 73% under setting [26]; 52% under setting [27]; 37.2% under setting [28]; 39.2% under setting [29]; 91.2% under setting [30]; 71.5% under setting [31]. For the same compound, the viability, T/C reads like this: under setting [32], 79%; under setting [33], 54.8%; under setting [34], 38%; under setting [35], 39.7%; under setting [36], 81.2%; under setting [37], 94.6%. For the same compound, the viability, T/C runs as follows: under setting [38], 76.8%; under setting [39], 52.7%; under setting [40], 40.2%; under setting [41], 41.4%; under setting [42], 83.9%; under setting [43], 83.8%.

Turning to `CC1COCCN1c1cc(C2(S(C)(=N)=O)CC2)nc(-c2ccnc3[nH]ccc23)n1` (stereo unspecified) + CN(C)c1ccc(Nc2c3ccc(NC(=O)CCN4CCCC4)cc3nc3cc(NC(=O)CCN4CCCC4)ccc23)cc1, the IC50 was determined as 3.57 µM under setting [2]; 2.59 µM under setting [3]; 7.8 µM under setting [4]; 3.79 µM under setting [5]; 3.58 µM under setting [6]; 6.04 µM under setting [7]. In addition, the viability, T/C reads like this: under setting [8], 97.6%; under setting [9], 99.8%; under setting [10], 97.3%; under setting [11], 88.5%; under setting [12], 51%; under setting [13], 41.1%. The viability, T/C runs as follows: under setting [14], 102%; under setting [15], 98.3%; under setting [16], 102%; under setting [17], 78.9%; under setting [18], 44.6%; under setting [19], 37.9%. In addition, the viability, T/C runs as follows: under setting [20], 92.2%; under setting [21], 86.2%; under setting [22], 88.4%; under setting [23], 81%; under setting [24], 60.3%; under setting [25], 47.1%. Moreover, the viability, T/C runs as follows: under setting [26], 73.7%; under setting [27], 76.6%; under setting [28], 100%; under setting [29], 72.7%; under setting [30], 54.2%; under setting [31], 31.9%. Further, the viability, T/C is, setting by setting: under setting [32], 84.5%; under setting [33], 76.5%; under setting [34], 86%; under setting [35], 72%; under setting [36], 51.4%; under setting [37], 43.5%. The viability, T/C is 79.5% under setting [38]; 77% under setting [39]; 93% under setting [40]; 73.6% under setting [41]; 61.9% under setting [42]; 41.2% under setting [43].

These data come from PubChem BioAssay AID2060511 (Molecular Pharmacology Branch, DTP, NCI, 2025).
